According to ChEMBL document CHEMBL1155411, “Design of two new chemotypes for inhibiting the Janus kinase 2 by scaffold morphing” (Bioorg Med Chem Lett, 2010):

Target: Tyrosine-protein kinase JAK2 (Homo sapiens, UniProt O60674)
Experiment: Inhibition of recombinant GST tagged JAK2 after 60 mins by Caliper mobility shift assay

Sequence of Tyrosine-protein kinase JAK2 (O60674 whole entry): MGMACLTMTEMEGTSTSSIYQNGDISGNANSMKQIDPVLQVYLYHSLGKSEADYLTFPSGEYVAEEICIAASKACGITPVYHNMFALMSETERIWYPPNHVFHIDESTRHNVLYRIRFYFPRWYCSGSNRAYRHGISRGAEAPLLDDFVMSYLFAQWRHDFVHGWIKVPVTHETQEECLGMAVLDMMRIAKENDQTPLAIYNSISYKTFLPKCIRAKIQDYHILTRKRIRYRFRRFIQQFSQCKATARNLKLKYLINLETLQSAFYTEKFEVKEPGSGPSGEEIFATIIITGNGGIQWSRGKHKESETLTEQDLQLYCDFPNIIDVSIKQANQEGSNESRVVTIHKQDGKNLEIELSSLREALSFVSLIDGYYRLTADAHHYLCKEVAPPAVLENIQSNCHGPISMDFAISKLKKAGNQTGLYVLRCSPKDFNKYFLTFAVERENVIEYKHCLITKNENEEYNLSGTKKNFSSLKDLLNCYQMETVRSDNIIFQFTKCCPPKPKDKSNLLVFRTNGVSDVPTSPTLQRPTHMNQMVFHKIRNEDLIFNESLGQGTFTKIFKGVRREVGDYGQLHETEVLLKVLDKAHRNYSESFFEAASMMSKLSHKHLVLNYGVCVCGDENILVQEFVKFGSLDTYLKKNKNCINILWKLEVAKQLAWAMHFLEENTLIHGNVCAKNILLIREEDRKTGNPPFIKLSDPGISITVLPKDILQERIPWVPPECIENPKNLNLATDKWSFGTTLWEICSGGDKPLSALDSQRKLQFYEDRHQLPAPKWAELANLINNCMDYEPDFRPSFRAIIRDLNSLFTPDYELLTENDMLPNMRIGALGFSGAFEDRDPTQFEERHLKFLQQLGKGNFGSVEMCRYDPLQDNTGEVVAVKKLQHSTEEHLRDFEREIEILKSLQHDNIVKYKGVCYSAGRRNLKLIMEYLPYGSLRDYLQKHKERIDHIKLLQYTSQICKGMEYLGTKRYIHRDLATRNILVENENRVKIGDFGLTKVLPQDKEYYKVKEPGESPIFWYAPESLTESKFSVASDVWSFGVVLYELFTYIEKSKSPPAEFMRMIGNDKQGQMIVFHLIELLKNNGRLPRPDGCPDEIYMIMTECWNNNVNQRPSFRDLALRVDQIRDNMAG

- IC50: 5.9 nM
SMILES: COc1cc(Nc2ncc3ccn(-c4ccccn4)c3n2)cc(OC)c1OC
